One assay addresses T1, JAK2 (Homo sapiens, UniProt O60674).
T1 construct: purchased Eurofins
Briefly: In vitro kinase activity experiment, JAK2. To be noted: inhibition rate of enzyme at 500 nM; measured by Eurofins. The format is biochemical. As to the method:
(§1) Buffer solution ([…], pH 7.0, 0.2 mm EDTA, 10 mM mncl2), kinase to be tested, substrate of kinase to be tested, 10 mM magnesium acetate and γ33P-ATP solution, and compounds with different concentrations were added to a reaction tube in turn, then MgATP was added to initiate the enzyme reaction process, and incubated at room temperature for 40 min. Then, the reaction was terminated with 5 μl of […], and 10 μl of the reaction solution was titrated onto the Filtermat A membrane, washed with 75 mM phosphate solution for three times, each time for 5 min., and then washed with methanol once. Finally, the Filtermat A membrane was dried and the scintillation count was carried out.

The subject of assay [1] is MOLM-13 cells (FLT3-ITD-/+). Kind of assay: Inhibition of cell proliferation by MTT experiment, MOLM-13. The format is cell-based, human. The note with it: Homo sapiens, MOLM-13; MTT, 72 h; read-out: IC50 value on cell proliferation inhibition, MOLM-13 FLT3-ITD-/+. From the text: (§2) MV4-11, MOLM-13 and SET-2 were used to determine the influence of the test compound of the present invention on the activity of cancer cells. MV4-11 and MOLM-13 were human leukemia cell lines from American Type Culture Collection (ATCC), expressing FLT3 receptor and containing FLT3-ITD mutation; and SET-2 was a primary thrombocythemia cell purchased from Chengdu Bowerston Biotechnology Co., Ltd., China, continuously expressing JAK2 receptor and containing the mutation of V617F.
(§3) MV4-11, MOLM-13 and SET-2 cells were filled in a 96-well petri dish with 100 μL IMDM as the medium, containing 10% fetal bovine serum (100 mL/bottle, purchased from Grassland Lvye Bio-Engineering Materials Co., Ltd. and cryopreserved at −20° C.), and with 10,000-15,000 cells in each well. […] In each group, 3-5 replicate wells were set and incubated in 5% CO2 at 37° C. for 72 h. At the endpoint, 20 μL MTT (5 mg/mL) was added to each well, and the cells were incubated for another 1-3 h.
(§4) After the inhibition rate of each concentration of compound on cell proliferation activity was calculated, the dose-response curve and IC50 value were fitted by Graphpad prism software according to the compound treatment concentrations and corresponding inhibition rates.

The next assay addresses T2, FLT3 (Homo sapiens, UniProt P36888).
T2 construct: purchased Eurofins
T2 sequence (P36888 27-993): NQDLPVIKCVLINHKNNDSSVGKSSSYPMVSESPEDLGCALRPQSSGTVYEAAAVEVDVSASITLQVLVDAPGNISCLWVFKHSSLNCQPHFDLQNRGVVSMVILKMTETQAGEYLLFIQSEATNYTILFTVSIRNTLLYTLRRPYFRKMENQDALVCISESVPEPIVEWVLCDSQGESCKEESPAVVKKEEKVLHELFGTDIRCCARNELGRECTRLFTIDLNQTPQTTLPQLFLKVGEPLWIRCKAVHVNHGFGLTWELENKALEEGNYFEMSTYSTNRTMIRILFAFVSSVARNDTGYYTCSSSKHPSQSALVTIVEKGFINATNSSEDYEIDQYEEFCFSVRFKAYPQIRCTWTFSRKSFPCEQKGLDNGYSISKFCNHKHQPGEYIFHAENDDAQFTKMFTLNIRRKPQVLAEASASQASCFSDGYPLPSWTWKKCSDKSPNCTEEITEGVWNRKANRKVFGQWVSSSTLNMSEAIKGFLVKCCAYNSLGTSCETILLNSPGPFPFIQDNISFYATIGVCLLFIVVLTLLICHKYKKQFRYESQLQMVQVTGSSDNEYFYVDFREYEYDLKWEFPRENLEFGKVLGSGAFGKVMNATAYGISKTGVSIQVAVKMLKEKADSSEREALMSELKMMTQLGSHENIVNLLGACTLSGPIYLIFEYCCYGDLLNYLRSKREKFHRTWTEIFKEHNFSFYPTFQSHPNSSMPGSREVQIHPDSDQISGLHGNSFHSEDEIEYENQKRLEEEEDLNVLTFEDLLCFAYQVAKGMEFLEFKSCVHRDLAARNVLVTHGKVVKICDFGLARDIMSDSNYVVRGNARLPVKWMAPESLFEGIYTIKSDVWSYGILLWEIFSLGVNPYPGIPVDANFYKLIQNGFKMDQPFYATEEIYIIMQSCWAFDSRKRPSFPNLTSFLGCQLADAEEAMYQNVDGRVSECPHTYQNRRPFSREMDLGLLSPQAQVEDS
Briefly: In vitro kinase activity experiment, FLT3. It counts as biochemical. To be noted: 40 min; inhibition rate of enzyme at 500 nM; measured by Eurofins; read-out: Kinase activity @ 500 nM (%) FLT3. As for the experimental part:
as §1

The subject of assay [2] is MV4-11 cells (FLT3-ITD+/+). Kind of assay: Inhibition of cell proliferation by MTT experiment, MV4-11. The format is cell-based, human. The note with it: Homo sapiens, MV4-11; MTT, 72 h; read-out: IC50 value on cell proliferation inhibition, MV4-11 FLT3-ITD+/+.
Text: as §2, §3, §4

The next assay relates to SET-2 cells (JAK2 V617F). Kind of assay: Inhibition of cell proliferation by MTT experiment, SET-2. It counts as cell-based. To be noted: Homo sapiens, SET-2; MTT, 72 h; read-out: IC50 value on cell proliferation inhibition, SET-2 (V617F).
Text: as §2, §3, §4

Bounds are passed on as bounds.

T1 sequence (O60674 whole entry): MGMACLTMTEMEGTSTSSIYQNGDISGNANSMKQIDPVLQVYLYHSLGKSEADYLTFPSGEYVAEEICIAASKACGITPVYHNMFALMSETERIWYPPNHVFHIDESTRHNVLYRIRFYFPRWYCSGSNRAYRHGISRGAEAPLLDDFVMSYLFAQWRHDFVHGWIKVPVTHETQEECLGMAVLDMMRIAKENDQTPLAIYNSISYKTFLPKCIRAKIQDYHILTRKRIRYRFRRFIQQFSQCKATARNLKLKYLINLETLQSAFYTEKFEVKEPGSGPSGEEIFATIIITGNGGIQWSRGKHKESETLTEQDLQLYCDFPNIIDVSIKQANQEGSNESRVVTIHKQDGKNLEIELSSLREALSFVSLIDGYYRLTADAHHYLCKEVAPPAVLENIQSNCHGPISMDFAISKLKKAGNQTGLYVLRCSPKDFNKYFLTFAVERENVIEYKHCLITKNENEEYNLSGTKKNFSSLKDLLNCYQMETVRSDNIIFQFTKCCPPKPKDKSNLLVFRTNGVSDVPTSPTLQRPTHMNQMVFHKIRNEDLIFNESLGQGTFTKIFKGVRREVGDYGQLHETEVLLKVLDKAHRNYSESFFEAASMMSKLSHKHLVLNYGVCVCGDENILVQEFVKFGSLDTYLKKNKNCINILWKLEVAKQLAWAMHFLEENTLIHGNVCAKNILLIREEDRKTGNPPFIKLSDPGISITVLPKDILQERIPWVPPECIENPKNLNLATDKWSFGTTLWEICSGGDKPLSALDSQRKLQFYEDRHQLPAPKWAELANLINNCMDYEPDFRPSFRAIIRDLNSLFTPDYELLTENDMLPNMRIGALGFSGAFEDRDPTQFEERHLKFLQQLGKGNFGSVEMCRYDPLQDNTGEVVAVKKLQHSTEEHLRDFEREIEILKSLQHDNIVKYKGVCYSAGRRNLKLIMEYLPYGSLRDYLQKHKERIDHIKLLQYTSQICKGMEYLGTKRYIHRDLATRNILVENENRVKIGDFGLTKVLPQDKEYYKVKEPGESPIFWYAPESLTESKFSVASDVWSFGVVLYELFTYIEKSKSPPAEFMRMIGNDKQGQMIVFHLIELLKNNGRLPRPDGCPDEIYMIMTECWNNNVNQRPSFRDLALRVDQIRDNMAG

For `CCCN1CC2(CCN(c3ccc(Nc4ncc(C)c(-c5cnn(C(C)C)c5)n4)cc3F)CC2)C1` [CLJ-72, N-(3-fluoro-4-(2,7-diazaspiro [3.5]nonane-2-propyl-7-yl)phenyl)-4-(1-isopropyl-1H-pyrazole-4-yl)-5-methylpyrimidine-2-amine], the “Kinase activity @ 500 nM (%) JAK2” value at JAK2 is 92%. In addition, the IC50 in assay [1] lay in the range of 10 to 100 nM; in assay [2], 10 to 100 nM; with SET-2 cells (JAK2 V617F), 100 to 1000 nM. Further, the inhibition at 0.5 µM on FLT3 stood at 92%.
Regarding `CCCCn1cc(-c2nc(Nc3ccc(N4CCN(C)CC4)c(F)c3)ncc2F)cn1` [CLJ-10, 5-fluoro-N-(3-fluoro-4-(4-methylpiperazine-1-yl)phenyl)-4-(1-butyl-1H-pyrazol-4-yl) pyrimidine-2-amine], at JAK2, the “Kinase activity @ 500 nM (%) JAK2” value is given as 37%. Moreover, the IC50 is 100 to 1000 nM in assay [1], above 1000 nM in assay [2] and above 1000 nM in the assay on SET-2 cells (JAK2 V617F). The inhibition at 0.5 µM at FLT3 amounted to 25%.
On to `CCCCCCN(C)C1CCN(c2ccc(Nc3ncc(C)c(-c4cnn(C(C)C)c4)n3)cc2F)CC1` [CLJ-51, 5-methyl-N-(3-fluoro-4-(4-N-hexyl-4-N-methylaminopiperidine-1-yl)phenyl)-4-(1-isopropyl-1H-pyrazole-4-yl) pyrimidine-2-amine], for which the “Kinase activity @ 500 nM (%) JAK2” value at JAK2 stood at 95%. Moreover, the IC50 in assay [1] is 1 to 10 nM; in assay [2], 100 to 1000 nM; in the assay with SET-2 cells (JAK2 V617F) it was 100 to 1000 nM. At FLT3, the inhibition at 0.5 µM was 93%.
For `CCS(=O)(=O)c1nn(C(C)C)cc1-c1nc(Nc2ccc(N3CCC(N(C)CCO)CC3)c(F)c2)ncc1C` [CLJ-92, 5-methyl-N-(3-fluoro-4-(4-N-hydroxyethyl-4-N-methylaminopiperidine-1-yl)phenyl)-4-(1-isopropyl-3-ethylsulfonyl-1H-pyrazole-4-yl) pyrimidine-2-amine], the “Kinase activity @ 500 nM (%) JAK2” value on JAK2 is reported as 104%. In addition, the IC50 was 10 to 100 nM in assay [1], 10 to 100 nM in assay [2] and 100 to 1000 nM in the assay with SET-2 cells (JAK2 V617F). For the same molecule, the inhibition at 0.5 µM at FLT3 came out at 98%.
With `Cc1cnc(Nc2ccc(N3CCC(N(C)CCCO)CC3)c(F)c2)nc1-c1cnn(C(C)C)c1` [CLJ-45, 5-methyl-N-(3-fluoro-4-(4-N-hydroxypropyl-4-N-methylaminopiperidine-1-yl)phenyl)-4-(1-isopropyl-1H-pyrazole-4-yl) pyrimidine-2-amine], the “Kinase activity @ 500 nM (%) JAK2” value on JAK2 was determined as 91%. Further, the IC50 in assay [1] was 10 to 100 nM; in assay [2], 1 to 10 nM; in the assay with SET-2 cells (JAK2 V617F), 100 to 1000 nM. Further, the inhibition at 0.5 µM at FLT3 is 98%.
In the same order, the values of `Cc1cnc(Nc2ccc(N3CCC(CO)CC3)c(F)c2)nc1-c1cnn(C(C)C)c1` [CLJ-42, 5-methyl-N-(3-fluoro-4-(4-hydroxymethylpiperidine-1-yl)phenyl)-4-(1-isopropyl-1H-pyrazole-4-yl) pyrimidine-2-amine] are 100%, 100 to 1000 nM, 10 to 100 nM, 100 to 1000 nM and 95%.
The matching figures for `Cc1cnc(Nc2ccc(CCNC(=O)CCCl)cc2)nc1-c1cnn(C(C)C)c1` [CLJ-88, N-(4-((4-(1-isopropyl-1H-pyrazole-4-yl)-5-methylpyrimidine-2-yl)amino)phenethyl)-3-chloropropanamide]: 20%, above 1000 nM, above 1000 nM, above 1000 nM and 32%.
In the same order, the values of `Cc1cnc(Nc2ccc(N3CCC4(CC3)CNC4)c(F)c2)nc1-c1cnn(C(C)C)c1` [CLJ-66, N-(3-fluoro-4-(2,7-diazaspiro[3.5]nonane-7-yl)phenyl)-4-(1-isopropyl-1H-pyrazole-4-yl)-5-methylpyrimidine-2-amine] are 93%, 100 to 1000 nM, 10 to 100 nM, 100 to 1000 nM and 94%.
On to `Cc1cnc(Nc2ccc(N3CCC(N(C)CCN4CCN(C(C)C)CC4)CC3)c(F)c2)nc1-c1cnn(C(C)C)c1` [CLJ-58, N-(3-fluoro-4-(4-(methyl (4-isopropyl-1-piperazine ethyl)amino)piperidine-1-yl)phenyl)-4-(1-isopropyl-1H-pyrazole-4-yl)-5-methylpyrimidine-2-amine], for which the “Kinase activity @ 500 nM (%) JAK2” value at JAK2 turned out to be 95%. The results for the IC50 (in assay [1]; in assay [2]; with SET-2 cells (JAK2 V617F)) were 10 to 100 nM, 1 to 10 nM and 100 to 1000 nM, respectively. Further, the inhibition at 0.5 µM on FLT3 worked out at 96%.
In the same order, the values of `COc1cc(Nc2ncc(F)c(-c3cnn(C(C)C)c3)n2)ccc1N1CCC(N(C)C)CC1` [CLJ-37, 5-fluoro-N-(3-methoxy-4-(4-dimethylaminopiperidine-1-yl)phenyl)-4-(1-isopropyl-1H-pyrazole-4-yl) pyrimidine-2-amine] are 98%, 100 to 1000 nM, 10 to 100 nM, 100 to 1000 nM and 97%.
On to `Cc1cnc(Nc2ccc(N3CCC4(CC3)CN(C3CCCC3)C4)c(F)c2)nc1-c1cnn(C(C)C)c1` [CLJ-76, N-(3-fluoro-4-(2,7-diazaspiro [3.5]nonane-2-cyclopentyl-7-yl)phenyl)-4-(1-isopropyl-1H-pyrazole-4-yl)-5-methylpyrimidine-2-amine], for which, on JAK2, the “Kinase activity @ 500 nM (%) JAK2” value came out at 59%. Moreover, the IC50 (in assay [1]; in assay [2]; in the assay on SET-2 cells (JAK2 V617F)) was 100 to 1000 nM each time. Also, the inhibition at 0.5 µM at FLT3 was determined as 67%.
Take `Cc1c(-c2nc(Nc3ccc(N4CCN(C5CCN(C)CC5)CC4)c(F)c3)ncc2F)cnn1C` [CLJ-15]: at JAK2, the “Kinase activity @ 500 nM (%) JAK2” value was 93%. The IC50 in assay [1] was 100 to 1000 nM; in assay [2] it was 10 to 100 nM; in the assay with SET-2 cells (JAK2 V617F), above 1000 nM. The inhibition at 0.5 µM at FLT3 amounted to 94%.
For the molecule `CCN1CCN(c2ccc(Nc3ncc(F)c(-c4ccc(CN5CCCC5)o4)n3)nc2)CC1` [CLJ-2], on JAK2, the “Kinase activity @ 500 nM (%) JAK2” value was 30%. Besides, the IC50 in assay [1] is 100 to 1000 nM; in assay [2] it was 100 to 1000 nM; in the assay with SET-2 cells (JAK2 V617F) it was above 1000 nM. The inhibition at 0.5 µM on FLT3 came to 25%.
On to `CCCN1CCC(n2cc(-c3nc(Nc4ccc(N5CCN(C)CC5)c(F)c4)ncc3F)cn2)CC1` [CLJ-12, 5-fluoro-N-(3-fluoro-4-(4-methylpiperazine-1-yl)pheny)-4-(1-(1-propylpiperidine-4-yl)-1H-pyrazole-4-yl) pyrimidine-2-amine], for which the “Kinase activity @ 500 nM (%) JAK2” value on JAK2 is listed as 27%. For the same molecule, the IC50 (in assay [1]; in assay [2]; in the assay with SET-2 cells (JAK2 V617F)) was above 1000 nM throughout. The inhibition at 0.5 µM at FLT3 stood at 20%.

For the origin of these results see US12428394B2, “2,4-disubstituted pyrimidine derivative, preparation method therefor and use thereof” (CHENGDU ZENITAR BIOMEDICAL TECHNOLOGY CO., LTD., priority 2019, dated 2025).
